From patent publication US11306092B2, “Amino indole compounds useful as TLR inhibitors” (BRISTOL-MYERS SQUIBB COMPANY, priority 2017, dated 2022) come the findings set out here.

A word on the IC50: it is the midpoint of a concentration-inhibition curve. Low values mean inhibition by little substance, high ones a need for much substance.

Format in all cases: cell-based
For assay [1], the target named is T1, human TLR7 (Homo sapiens, UniProt Q9NYK1).
T1 construct: host or cells: HEK-Blue cells
T1 sequence (Q9NYK1 27-1049): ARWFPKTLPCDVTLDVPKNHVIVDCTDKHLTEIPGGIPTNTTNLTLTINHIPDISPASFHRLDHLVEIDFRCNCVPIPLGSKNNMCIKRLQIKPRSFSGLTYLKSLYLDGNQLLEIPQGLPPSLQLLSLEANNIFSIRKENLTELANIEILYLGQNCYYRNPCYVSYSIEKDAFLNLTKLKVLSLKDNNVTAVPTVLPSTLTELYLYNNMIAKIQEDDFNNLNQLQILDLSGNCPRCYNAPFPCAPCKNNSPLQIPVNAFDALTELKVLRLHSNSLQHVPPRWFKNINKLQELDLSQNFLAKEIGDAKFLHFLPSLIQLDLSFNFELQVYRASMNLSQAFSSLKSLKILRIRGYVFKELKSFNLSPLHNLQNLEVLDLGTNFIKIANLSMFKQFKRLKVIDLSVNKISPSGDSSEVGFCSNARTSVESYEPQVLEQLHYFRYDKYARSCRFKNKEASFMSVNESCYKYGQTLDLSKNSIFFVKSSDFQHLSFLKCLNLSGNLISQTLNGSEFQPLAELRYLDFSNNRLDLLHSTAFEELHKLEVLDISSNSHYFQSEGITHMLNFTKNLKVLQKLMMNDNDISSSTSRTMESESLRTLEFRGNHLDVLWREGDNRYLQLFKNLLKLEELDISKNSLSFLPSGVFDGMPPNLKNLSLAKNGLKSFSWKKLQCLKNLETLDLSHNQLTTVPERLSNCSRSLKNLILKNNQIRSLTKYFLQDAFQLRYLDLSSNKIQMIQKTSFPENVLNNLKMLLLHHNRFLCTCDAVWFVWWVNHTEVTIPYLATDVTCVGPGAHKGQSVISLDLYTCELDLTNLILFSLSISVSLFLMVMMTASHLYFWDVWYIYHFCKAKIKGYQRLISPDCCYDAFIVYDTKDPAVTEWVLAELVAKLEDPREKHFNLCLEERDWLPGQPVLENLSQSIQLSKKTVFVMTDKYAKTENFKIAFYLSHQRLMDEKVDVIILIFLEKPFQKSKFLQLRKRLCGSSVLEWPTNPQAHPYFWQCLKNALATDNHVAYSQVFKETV
Description: TLR7 inhibition reporter assay (HEK-Blue SEAP reporter). As to conditions: HEK-Blue cells overexpressing human TLR7; gardiquimod 7.5 μM; 22 hour incubation. The procedure, abridged:
(§1)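 Agonists used: gardiquimod 7.5 μM (TLR7), R848 15.9 μM (TLR8), ODN2006 5 nM (TLR9), added after 30 min room-temperature compound pre-treatment (0.05 nM–50 μM) of receptor-overexpressing HEK-Blue cells. SEAP reporter (NF-κB/AP-1 driven) read after 22 h at 37 °C; inhibition scaled between agonist+DMSO and reference-inhibitor wells.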

For assay [2], the target named is T2, human TLR8 (Homo sapiens, UniProt Q9NR97).
T2 construct: host or cells: HEK-Blue cells
T2 sequence (Q9NR97 27-1041): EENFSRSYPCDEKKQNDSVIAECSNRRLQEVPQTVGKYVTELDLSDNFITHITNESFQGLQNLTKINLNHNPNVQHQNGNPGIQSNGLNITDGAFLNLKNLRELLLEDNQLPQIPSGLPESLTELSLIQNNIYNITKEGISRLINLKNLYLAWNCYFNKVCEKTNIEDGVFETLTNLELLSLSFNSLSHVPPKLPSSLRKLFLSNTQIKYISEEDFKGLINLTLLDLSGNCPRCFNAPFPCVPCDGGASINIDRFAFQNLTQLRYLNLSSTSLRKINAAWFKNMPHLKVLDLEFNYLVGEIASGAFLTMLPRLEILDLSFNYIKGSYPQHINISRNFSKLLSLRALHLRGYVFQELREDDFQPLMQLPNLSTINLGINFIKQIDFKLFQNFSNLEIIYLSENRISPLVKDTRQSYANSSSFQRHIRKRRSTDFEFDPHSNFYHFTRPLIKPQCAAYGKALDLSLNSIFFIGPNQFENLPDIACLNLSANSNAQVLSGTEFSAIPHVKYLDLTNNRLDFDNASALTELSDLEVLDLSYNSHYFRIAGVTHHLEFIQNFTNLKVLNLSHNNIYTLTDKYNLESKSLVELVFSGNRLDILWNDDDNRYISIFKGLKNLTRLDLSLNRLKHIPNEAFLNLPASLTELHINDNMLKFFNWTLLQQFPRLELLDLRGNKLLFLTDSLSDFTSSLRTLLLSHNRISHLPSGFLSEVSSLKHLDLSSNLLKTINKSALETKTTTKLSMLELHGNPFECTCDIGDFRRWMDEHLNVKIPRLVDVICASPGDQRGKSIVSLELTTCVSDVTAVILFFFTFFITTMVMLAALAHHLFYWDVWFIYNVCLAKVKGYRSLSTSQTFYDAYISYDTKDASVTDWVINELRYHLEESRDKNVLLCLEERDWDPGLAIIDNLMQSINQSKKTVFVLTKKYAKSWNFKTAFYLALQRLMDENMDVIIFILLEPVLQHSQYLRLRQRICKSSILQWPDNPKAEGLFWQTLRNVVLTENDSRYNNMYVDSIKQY
In words: TLR8 inhibition reporter assay (HEK-Blue SEAP reporter). The conditions noted are these: HEK-Blue cells overexpressing human TLR8; R848 15.9 μM; 22 hour incubation. Put shortly:
as §1
(In general: In a reporter assay the amount or activity of a reporter protein is the signal.)

Assay [3] has as its target T3, human TLR9 (Homo sapiens, UniProt Q9NR96).
T3 construct: host or cells: HEK-Blue cells
T3 sequence (Q9NR96 26-1032): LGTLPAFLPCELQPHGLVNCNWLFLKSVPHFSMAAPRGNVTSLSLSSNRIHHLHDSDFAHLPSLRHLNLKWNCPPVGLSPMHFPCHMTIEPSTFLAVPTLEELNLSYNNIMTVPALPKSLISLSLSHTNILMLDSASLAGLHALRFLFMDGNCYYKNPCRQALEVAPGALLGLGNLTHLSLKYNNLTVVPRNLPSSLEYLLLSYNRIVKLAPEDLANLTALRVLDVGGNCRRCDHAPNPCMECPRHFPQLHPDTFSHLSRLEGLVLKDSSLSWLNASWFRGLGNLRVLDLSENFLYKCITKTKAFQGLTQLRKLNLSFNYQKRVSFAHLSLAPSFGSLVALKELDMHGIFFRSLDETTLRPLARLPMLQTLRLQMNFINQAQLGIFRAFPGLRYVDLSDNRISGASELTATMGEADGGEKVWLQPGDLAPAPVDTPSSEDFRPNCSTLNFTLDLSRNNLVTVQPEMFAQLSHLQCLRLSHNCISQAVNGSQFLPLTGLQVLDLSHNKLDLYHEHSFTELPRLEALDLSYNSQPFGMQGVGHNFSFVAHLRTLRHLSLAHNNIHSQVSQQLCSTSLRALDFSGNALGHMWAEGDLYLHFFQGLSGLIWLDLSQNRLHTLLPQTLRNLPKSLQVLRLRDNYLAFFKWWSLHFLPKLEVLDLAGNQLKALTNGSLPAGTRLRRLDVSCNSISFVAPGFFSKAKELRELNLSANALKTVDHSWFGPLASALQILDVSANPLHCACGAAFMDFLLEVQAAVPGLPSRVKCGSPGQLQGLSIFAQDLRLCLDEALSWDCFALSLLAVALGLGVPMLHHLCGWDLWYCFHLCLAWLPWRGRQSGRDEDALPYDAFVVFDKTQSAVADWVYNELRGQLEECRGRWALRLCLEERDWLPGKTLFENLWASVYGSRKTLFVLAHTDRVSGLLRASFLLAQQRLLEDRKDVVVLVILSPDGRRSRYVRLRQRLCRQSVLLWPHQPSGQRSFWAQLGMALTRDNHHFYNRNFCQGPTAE
Description: TLR9 inhibition reporter assay (HEK-Blue SEAP reporter). As to conditions: HEK-Blue cells overexpressing human TLR9; ODN2006 5 nM; 22 hour incubation. Put shortly:
as §1

SMILES strings stand for the structures. Some results are limits rather than exact numbers.

Consider `CCc1c(-c2ccc(OC)c(OC)c2)[nH]c2ccc(N3CCN(C4CCN(C)CC4)CC3)cc12` [Example 154, 2-(3,4-dimethoxyphenyl)-3-ethyl-5-(4-(1-methylpiperidin-4-yl)piperazin-1-yl)-1H-indole], for which the values for the IC50 in assay [1], in assay [2] and in assay [3] were 79 nM, 14 nM and 829 nM, respectively.
For `CCc1c(-c2cc(OC)nc(OC)c2)[nH]c2ccc(N3CCN(C4CCN(C)CC4)CC3)cc12` [Example 156, 2-(2,6-dimethoxypyridin-4-yl)-3-ethyl-5-(4-(1-methylpiperidin-4-yl)piperazin-1-yl)-1H-indole], in that order: 52 nM, 6.6 nM and 597 nM.
In the same order, the values of `CCc1c(-c2ccnc3[nH]ccc23)[nH]c2ccc(N3CCN(C4CCN(C(C)C)CC4)CC3)cc12` [Example 157, 4-(3-ethyl-5-(4-(1-isopropylpiperidin-4-yl)piperazin-1-yl)-1H-indol-2-yl)-1H-pyrrolo[2,3-b]pyridine] are 4230 nM, 635 nM and 559 nM.
Consider `Cc1c(-c2ccnc3[nH]ccc23)[nH]c2ccc(N3CCN(C4CCN(CC(C)C)CC4)CC3)cc12` [Example 158, 4-(5-(4-(1-isobutylpiperidin-4-yl)piperazin-1-yl)-3-methyl-H-indol-2-yl)-1H-pyrrolo[2,3-b]pyridine], for which the values for the concentration for half-maximal inhibition (IC50) in assay [1], in assay [2] and in assay [3] were 12500 nM, 45400 nM and 198 nM, respectively.
On to `CCc1c(-c2ccnc3[nH]ncc23)[nH]c2ccc(N3CCN(C4CCN(C(C)C)CC4)CC3)cc12` [Example 159, 4-(3-ethyl-5-(4-(1-isopropylpiperidin-4-yl)piperazin-1-yl)-1H-indol-2-yl)-1H-pyrazolo[3,4-b]pyridine], for which the IC50 in assay [1] came to 5640 nM; in assay [2], 6010 nM; in assay [3], 684 nM.
As for `CCc1c(-c2ccnc(OC)c2)[nH]c2ccc(N3CCN(C4CCN(CC(C)C)CC4)CC3)cc12` [Example 160, 3-ethyl-5-(4-(1-isobutylpiperidin-4-yl)piperazin-1-yl)-2-(2-methoxypyridin-4-yl)-1H-indole], the IC50 in assay [1] is 106 nM; in assay [2], 14 nM; in assay [3] it was 470 nM.
In the same order, the values of `CCc1c(-c2ccnc(OC)c2)[nH]c2ccc(N3CCN(C4CC(C)(C)NC(C)(C)C4)CC3)cc12` [Example 161, 3-ethyl-2-(2-methoxypyridin-4-yl)-5-(4-(2,2,6,6-tetramethylpiperidin-4-yl)piperazin-1-yl)-lH-indole] are 63 nM, 8.1 nM and 243 nM.
With `COc1ccc(-c2[nH]c3ccc(N4CCN(C5CCN(C)CC5)CC4)cc3c2C(C)C)cc1OC` [Example 162, 2-(3,4-dimethoxyphenyl)-3-isopropyl-5-(4-(1-methylpiperidin-4-yl)piperazin-1-yl)-1H-indole], the 50% inhibitory concentration (IC50) in assay [1] came out at 30 nM; in assay [2], 7.9 nM; in assay [3] it was 935 nM.
Consider `CCc1c(-c2ccc(OC)c(OC)c2)[nH]c2ccc(N3CCN(C4CCN(CC)CC4)CC3)cc12` [Example 163, 2-(3,4-dimethoxyphenyl)-3-ethyl-5-(4-(1-ethylpiperidin-4-yl)piperazin-1-yl)-1H-indole], for which the half-inhibitory concentration (IC50) in assay [1] stood at 68 nM; in assay [2], 9.3 nM; in assay [3], 709 nM.
In the same order, the values of `COc1ccc(-c2[nH]c3ccc(N4CCN(C5CCN(C(C)C)CC5)CC4)cc3c2C)cc1OC` [Example 164, 2-(3,4-dimethoxyphenyl)-5-(4-(1-isopropylpiperidin-4-yl)piperazin-1-yl)-3-methyl-1H-indole] are 7090 nM, more than 50000 nM and 577 nM.
In the same order, the values of `CCc1c(-c2ccnc3c2ccn3C)[nH]c2ccc(N3CCN(C4CCN(C(C)C)CC4)CC3)cc12` [Example 165, 4-(3-ethyl-5-(4-(1-isopropylpiperidin-4-yl)piperazin-1-yl)-1H-indol-2-yl)-1-methyl-H-pyrrolo[2,3-b] pyridine] are 5900 nM, 9400 nM and 685 nM.
For `CC(C)c1c(-c2ccnc3[nH]ccc23)[nH]c2ccc(N3CCN(C4CCN(C(C)C)CC4)CC3)cc12` [Example 166, 4-(3-isopropyl-5-(4-(1-isopropylpiperidin-4-yl)piperazin-1-yl)-1H-indol-2-yl)-1H-pyrrolo[2,3-b]pyridine], in that order: 6.2 nM, 0.05 nM and 318 nM.
As to `CC(C)c1c(-c2ccnc3[nH]ncc23)[nH]c2ccc(N3CCN(C4CCN(C(C)C)CC4)CC3)cc12` [Example 168, 4-(3-isopropyl-5-(4-(1-isopropylpiperidin-4-yl)piperazin-1-yl)-1H-indol-2-yl)-1H-pyrazolo[3,4-b]pyridine], the IC50 in assay [1] is more than 50000 nM; in assay [2], 48000 nM; in assay [3] it was 259 nM.
